Columns and labels:
[1] = test system: participants with type 2 diabetes; test: Phase II trial: adverse events (safety and tolerability); format: in vivo, human; conditions: up to 1.0 mg qw open-label
Experimental: (VAS), the Patient’s Global Impression of Severity (PGI-S) for difficulty to control eating behaviours and the 7-point profile of self-monitoring of blood glucose (SMBG).
At each study visit, participants were advised to adhere to the specific recommended diet and exercise plan provided to them during diet and exercise counselling throughout the study.
Survodutide was made available in vials (2 mg/ml, 1 ml fill volume per vial) for dose escalation in Weeks 1–6 and in pre-filled syringes (various concentrations, 0.5 ml fill volume) for maintenance dose in Weeks 7–16. The placebo solution (isotonic sodium chloride) was filled into identical vials or pre-filled syringes. […]
Safety and tolerability were assessed based on the general occurrence of treatment -emergent adverse even ts, safety laboratory parameters, physical examination, vital sign measurements and 12 -lead ECG . ECG services were externally provided and recordings were evaluated centrally.
(§1) MMRM, as for the primary endpoint, and descriptive statistics. All safety endpoints, NASH-related scores and SMBG were analysed descriptively. […]

[2] = test system: participants with type 2 diabetes; test: Phase II trial: exploratory biomarkers and NASH-related scores, change from baseline at EoT; format: in vivo, human; conditions: up to 1.0 mg qw open-label, after 16 weeks
Description: Pharmacodynamic endpoints were the changes from baseline in exploratory biomarkers related to liver function and fatty liver disease (plasma levels of cytokeratin 18 and Pro-C3 and enhanced liver fibrosis [ELF] score), glucose metabolism (adiponectin and fasting insulin and C-peptide levels) and target receptor engagement (amino acid and glucagon levels). Exploratory NASH-related scores (Fibrosis-4 [Fib-4] score, aspartate aminotransferase/platelet ratio [APRI] and non-alcoholic fatty liver disease [NAFLD] fibrosis score) were assessed as safety-related endpoints.
HbA1c was assessed at screening, weeks 1, 5, 8, 12 and 16, EoT and follow-up and analysed centrally. Bodyweight was measured at every visit (screening, weeks 1–8, 12 and 16, EoT and follow-up). Waist circumference was measured at screening, weeks 1 and 6 and EoT. Waist circumference was measured at the midpoint between the lowest rib and the iliac crest. Participants were provided with a glucose monitoring device for weekly use at home during the study. Participant-reported outcomes (Three-Factor Eating Questionnaire [TFEQ-R18 V2], Patient Global Impression of Severity [PGI-S] and a hunger visual analogue scale [VAS]) were assessed at weeks 1, 5 and 8 and EoT in a fasted state. […]
as §1

[3] = in vivo; cited from earlier work
[4] = Phase II trial: pharmacokinetics (steady state, dose proportionality of trough concentrations); format: in vivo, human
Experimental: The attainment of steady state and dose proportionality of survodutide were assessed as pharmacokinetic endpoints.
HbA1c was assessed at screening, weeks 1, 5, 8, 12 and 16, EoT and follow-up and analysed centrally. Bodyweight was measured at every visit (screening, weeks 1–8, 12 and 16, EoT and follow-up). Waist circumference was measured at screening, weeks 1 and 6 and EoT. Waist circumference was measured at the midpoint between the lowest rib and the iliac crest. Participants were provided with a glucose monitoring device for weekly use at home during the study. Participant-reported outcomes (Three-Factor Eating Questionnaire [TFEQ-R18 V2], Patient Global Impression of Severity [PGI-S] and a hunger visual analogue scale [VAS]) were assessed at weeks 1, 5 and 8 and EoT in a fasted state. Blood sampling for pharmacokinetics was carried out at every visit (weeks 1–8, 12 and 16, EoT and follow-up) and blood sampling for exploratory biomarkers was carried out at weeks 1, 5, 8 and 12, EoT and follow-up. Safety assessments are described in the ESM Methods.

[5] = test system: people with type 2 diabetes or overweight/obesity; conditions: AWARD-5, 52 weeks; cited from earlier work
Description: Glucagon-like peptide-1 receptor (GLP-1R) agonists, such as liraglutide and semaglutide, have been developed for the treatment of both type 2 diabetes and obesity. […] Apart from the well-characterised gastrointestinal (GI) adverse events (AEs), GLP-1R agonists are generally well tolerated. ... || Survodutide (BI 456906) is a novel subcutaneous GCGR/GLP-1R dual agonist in development for the treatment of people with type 2 diabetes, obesity and non-alcoholic steatohepatitis (NASH). Addition of a C18 fatty acid into the acylated peptide, as a half-life-extending principle, allows for weekly administration of survodutide. […] In ... || In addition to semaglutide, other GLP-1R agonists now approved for the treatment of type 2 diabetes have been investigated in combination with background metformin therapy. […] The maximum reduct ... || (+ 2 further places)

## Semaglutide: GLP-1R agonist; open-label reference control, up to 1.0 mg qw
[1]
  Participants reporting severe AEs: none
[2]
  Change from baseline in glucagon: no relevant changes

## oxyntomodulin: endogenous proglucagon derivative, GCGR/GLP-1R dual agonist
[3]
  Half-life: very short

## Survodutide
[4]; DG1–5, plasma trough concentrations
  Time at which steady state appeared to be achieved (visually): 8 week
[4]; DG6, plasma trough concentrations
  Time at which steady state appeared to be achieved (visually): 12 week
[4]; escalating weekly or biweekly sc doses
  Dose proportionality of plasma trough concentrations: approximately dose-proportional

## dulaglutide: GLP-1R agonist approved for the treatment of type 2 diabetes
[5]
  Bodyweight reduction: –3.1 kg
